Activity and viability data for 6 molecules are collected here from ChEMBL document CHEMBL4033680, “Derivatives of caffeic acid, a natural antioxidant, as the basis for the discovery of novel nonpeptidic neurotrophic agents” (2017).

Active and inactive are the calls of the source. The calls are words filed in the database; no cut-off is given here.

For experiment [1], the system named is PC-12. Description: Potentiation of NGF-induced neuronal differentiation in rat PC12 cells assessed as increase in number of neurites longer than 100 umeter at 5 uM after 8 days by phase contrast micoscopy. The format is functional, cell-based.
The subject of experiment [2] is PC-12. Put plainly: Neuroprotective activity against serum deprivation-induced cell death in rat PC12 cells assessed as increase in cell survival at 25 uM after 48 hrs in presence of TrkA inhibitor K252a by MTT assay. The format is functional, cell-based.
The test system of experiment [3] is PC-12. Put plainly: Potentiation of NGF-induced neuronal differentiation in rat PC12 cells assessed as increase in number of neurites at 1 uM after 8 days by phase contrast micoscopy. The format is functional, cell-based.
The test system of experiment [4] is PC-12. Put plainly: Potentiation of NGF-induced neuronal differentiation in rat PC12 cells assessed as increase in number of neurites longer than 100 umeter at 25 uM after 8 days by phase contrast micoscopy. The format is functional, cell-based.
Experiment [5] concerns PC-12. Put plainly: Potentiation of NGF-induced neuronal differentiation in rat PC12 cells assessed as increase in number of neurites at 25 uM after 8 days by phase contrast micoscopy. In kind it is functional, cell-based.
In experiment [6] the test system is PC-12. Description: Neuroprotective activity against serum deprivation-induced cell death in rat PC12 cells assessed as cell survival at 25 uM after 48 hrs by MTT assay relative to control. In kind it is functional. The note with it: PC-12, 48 h, read-out: Survival.
Experiment [7] relates to PC-12. Put plainly: Induction of neurite outgrowth in rat PC12 cells assessed as increase in total number of neurites at 5 to 25 uM after 8 days by phase contrast micoscopy. In kind it is functional, cell-based.
Experiment [8] deals with PC-12. Description: Potentiation of NGF-induced neuronal differentiation in rat PC12 cells assessed as increase in number of neurites at 5 uM after 8 days by phase contrast micoscopy. In kind it is functional, cell-based.
The subject of experiment [9] is PC-12. Description: Potentiation of NGF-induced neuronal differentiation in rat PC12 cells assessed as increase in number of neurites after 8 days by phase contrast micoscopy. In kind it is functional, cell-based.
Experiment [10] deals with RAC-alpha serine/threonine-protein kinase (Rattus norvegicus) (UniProt P47196). Description: Increase in AKT phosphorylation in rat PC12 cells at 5 to 25 uM after 2 hrs by immunoblotting method. In kind it is cell-based. (In western blotting, separated proteins are transferred to a membrane and probed.)
Experiment [11] addresses T1, Mitogen-activated protein kinase 1 and 3 (ERK2 and ERK1) (Rattus norvegicus) (UniProt P63086+P21708). Description: Increase in ERK1/2 phosphorylation in rat PC12 cells after 2 hrs by immunoblotting method. The format is cell-based.
For experiment [12], the target named is T1, Mitogen-activated protein kinase 1 and 3 (ERK2 and ERK1) (Rattus norvegicus). Description: Increase in NGF-induced ERK1/2 phosphorylation in rat PC12 cells at 5 to 25 uM after 2 hrs by immunoblotting method. In kind it is cell-based.
The target in experiment [13] is High affinity nerve growth factor receptor (Rattus norvegicus) (UniProt P35739). Description: Potentiation of NGF-induced TrkA phosphorylation in rat PC12 cells at 5 to 25 uM after 60 mins by Western blot method. The format is cell-based.
Experiment [14] has the same target. Description: Activation of TrkA in rat PC12 cells assessed as increase in phospho-TrkA levels at 5 to 25 uM after 60 mins by Western blot method. The format is cell-based.
The target in experiment [15] is RAC-alpha serine/threonine-protein kinase (Rattus norvegicus) (UniProt P47196). Description: Increase in NGF-induced AKT phosphorylation in rat PC12 cells at 5 to 25 uM after 2 hrs by immunoblotting method. The format is cell-based.

T1 sequence (P21708 whole entry, looked up): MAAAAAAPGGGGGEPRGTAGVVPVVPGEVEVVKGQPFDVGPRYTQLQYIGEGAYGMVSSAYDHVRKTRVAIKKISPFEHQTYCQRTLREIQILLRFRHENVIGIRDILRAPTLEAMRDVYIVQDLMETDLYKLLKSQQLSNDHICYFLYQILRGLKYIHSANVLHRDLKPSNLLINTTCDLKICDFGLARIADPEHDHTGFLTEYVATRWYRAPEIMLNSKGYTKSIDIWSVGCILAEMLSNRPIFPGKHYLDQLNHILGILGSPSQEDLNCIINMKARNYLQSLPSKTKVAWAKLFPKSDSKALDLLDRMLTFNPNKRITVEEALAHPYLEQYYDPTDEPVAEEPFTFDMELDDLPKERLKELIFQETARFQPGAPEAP
T1 sequence (P63086 whole entry, looked up): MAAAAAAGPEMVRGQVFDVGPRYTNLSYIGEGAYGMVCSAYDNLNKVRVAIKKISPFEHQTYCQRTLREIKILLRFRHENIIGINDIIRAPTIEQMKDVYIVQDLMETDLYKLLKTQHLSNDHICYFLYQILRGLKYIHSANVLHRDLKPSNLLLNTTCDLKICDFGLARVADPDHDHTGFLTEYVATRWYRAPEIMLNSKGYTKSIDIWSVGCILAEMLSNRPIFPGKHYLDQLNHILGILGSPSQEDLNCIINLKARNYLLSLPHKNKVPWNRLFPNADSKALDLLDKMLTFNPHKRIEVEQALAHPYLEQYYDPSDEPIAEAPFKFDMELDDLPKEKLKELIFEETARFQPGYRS
Chain of High affinity nerve growth factor receptor (Rattus norvegicus) (P35739 whole entry): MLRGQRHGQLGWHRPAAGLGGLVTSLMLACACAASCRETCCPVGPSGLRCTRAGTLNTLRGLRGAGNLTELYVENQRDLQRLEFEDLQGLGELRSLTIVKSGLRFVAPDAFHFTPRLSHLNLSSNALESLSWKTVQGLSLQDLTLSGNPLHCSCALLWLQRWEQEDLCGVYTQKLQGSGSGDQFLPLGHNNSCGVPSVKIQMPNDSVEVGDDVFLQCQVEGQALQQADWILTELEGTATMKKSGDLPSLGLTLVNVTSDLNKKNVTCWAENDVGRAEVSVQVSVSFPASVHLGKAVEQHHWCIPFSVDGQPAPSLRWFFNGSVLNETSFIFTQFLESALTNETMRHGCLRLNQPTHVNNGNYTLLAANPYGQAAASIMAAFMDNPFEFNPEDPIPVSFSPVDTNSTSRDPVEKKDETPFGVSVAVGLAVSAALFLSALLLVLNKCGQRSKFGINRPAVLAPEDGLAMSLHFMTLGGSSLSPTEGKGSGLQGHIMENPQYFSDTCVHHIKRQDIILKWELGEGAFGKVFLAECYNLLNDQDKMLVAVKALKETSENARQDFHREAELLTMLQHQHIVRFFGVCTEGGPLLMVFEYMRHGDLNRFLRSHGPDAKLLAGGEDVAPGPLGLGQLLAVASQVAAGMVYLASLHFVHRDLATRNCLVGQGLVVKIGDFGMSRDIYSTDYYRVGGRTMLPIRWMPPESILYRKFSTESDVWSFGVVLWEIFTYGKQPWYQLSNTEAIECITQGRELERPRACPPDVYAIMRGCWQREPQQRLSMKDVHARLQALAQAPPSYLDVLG
Chain of RAC-alpha serine/threonine-protein kinase (Rattus norvegicus) (P47196 whole entry): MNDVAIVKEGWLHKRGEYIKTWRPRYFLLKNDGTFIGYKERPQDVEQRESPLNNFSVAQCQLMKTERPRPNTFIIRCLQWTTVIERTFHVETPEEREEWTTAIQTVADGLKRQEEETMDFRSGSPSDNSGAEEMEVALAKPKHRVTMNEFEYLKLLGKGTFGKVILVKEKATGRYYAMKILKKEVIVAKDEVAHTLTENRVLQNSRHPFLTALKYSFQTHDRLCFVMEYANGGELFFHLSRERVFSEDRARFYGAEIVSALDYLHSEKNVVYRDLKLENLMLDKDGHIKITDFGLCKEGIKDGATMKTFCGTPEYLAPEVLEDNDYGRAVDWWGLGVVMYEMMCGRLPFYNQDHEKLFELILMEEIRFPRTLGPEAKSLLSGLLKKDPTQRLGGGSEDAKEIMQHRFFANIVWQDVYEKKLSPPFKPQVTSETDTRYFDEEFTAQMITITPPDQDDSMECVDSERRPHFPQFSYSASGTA

`CCCCCCNC(=O)/C=C/c1ccc(O)c(O)c1` [CAFFEOYLHEXYLAMIDE]: the outcome in the experiment on PC-12 [1], with PC-12 [4], in the experiment on PC-12 [5] and in the experiment with PC-12 [8] was Active. Further, the outcome with PC-12 [2], in the experiment with PC-12 [3] and with PC-12 [7] was inactive. In the experiment on PC-12 [6], the viability at 25 µM was 183%.
For the molecule `CCCCCCCCCCNC(=O)/C=C/c1ccc(O)c(O)c1`, the result in the experiment with PC-12 [9] and in the experiment with PC-12 [2] was inactive. Moreover, the viability at 25 µM in the experiment with PC-12 [6] worked out at 193%.
With `CCCCCCCCCCCCNC(=O)/C=C/c1ccc(O)c(O)c1`, the outcome (in the experiment on PC-12 [9]; in the experiment on PC-12 [2]; in [13]; in [14]; in experiment [15]) was inactive. Besides, the outcome in experiment [10] and in experiment [12] was Active. The Activity result in experiment [11] was “Dose-dependent effect”. Further, the viability at 25 µM in the experiment on PC-12 [6] is 230%.
`CCCNC(=O)/C=C/c1ccc(O)c(O)c1`: the result with PC-12 [2], in the experiment with PC-12 [3] and in the experiment on PC-12 [7] was inactive. In addition, the result in the experiment with PC-12 [4] and in the experiment with PC-12 [5] was Active. The viability at 25 µM in the experiment with PC-12 [6] is 158%.
Turning to `CCCCNC(=O)/C=C/c1ccc(O)c(O)c1`, the result (in [10]; in the experiment on PC-12 [2]; in the experiment with PC-12 [3]; in [13]; in experiment [14]; in experiment [15]) was inactive. Moreover, in the experiment on PC-12 [7], the result was inactive. Also, the result (with PC-12 [1]; in [12]; in the experiment with PC-12 [4]; in the experiment on PC-12 [5]; in the experiment on PC-12 [8]) was Active. The Activity result in [11] was “Dose-dependent effect”. Further, the viability at 25 µM with PC-12 [6] came to 202%.
Turning to `CCCCCCCCNC(=O)/C=C/c1ccc(O)c(O)c1`, the outcome with PC-12 [1], in the experiment on PC-12 [4], in the experiment with PC-12 [5] and in the experiment with PC-12 [8] was Active. For the same molecule, the outcome in the experiment with PC-12 [2], in the experiment with PC-12 [3] and in the experiment on PC-12 [7] was inactive. For the same molecule, in the experiment on PC-12 [6], the viability at 25 µM is 158%.
